Laboratory results as given in PubChem BioAssay (NCI).
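The compound was tested at five concentrations on cells cultured in 96-well plates, with a 48-hour exposure period. Here, GI50 denotes the concentration required for 50% inhibition of growth. The concentration for full growth arrest is given as TGI.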

How the values were obtained:
Assay in all cases: DTP human tumour cell line panel, 48 h
RPMI-8226 leukemia = test system: RPMI-8226 leukemia
NCI-H460 lung = test system: NCI-H460 lung
SK-MEL-2 melanoma = test system: SK-MEL-2 melanoma
A549 NSCLC = test system: A549 NSCLC
M14 melanoma = test system: M14 melanoma
CAKI-1 renal = test system: CAKI-1 renal
MDA-MB-435 = test system: MDA-MB-435
SK-MEL-5 melanoma = test system: SK-MEL-5 melanoma
SN12C renal = test system: SN12C renal
U251 CNS = test system: U251 CNS

Compound | TGI (RPMI-8226 leukemia) [µM] | TGI (NCI-H460 lung) [µM] | TGI (SK-MEL-2 melanoma) [µM] | TGI (A549 NSCLC) [µM] | TGI (M14 melanoma) [µM] | TGI (CAKI-1 renal) [µM] | TGI (MDA-MB-435) [µM] | TGI (SK-MEL-5 melanoma) [µM] | TGI (SN12C renal) [µM] | TGI (U251 CNS) [µM] | GI50 (RPMI-8226 leukemia) [µM] | GI50 (NCI-H460 lung) [µM] | GI50 (SK-MEL-2 melanoma) [µM] | GI50 (A549 NSCLC) [µM] | GI50 (M14 melanoma) [µM] | GI50 (CAKI-1 renal) [µM] | GI50 (MDA-MB-435) [µM] | GI50 (SK-MEL-5 melanoma) [µM] | GI50 (SN12C renal) [µM] | GI50 (U251 CNS) [µM]
CC[C@H](C)C1=C(OC(C)=O)[N@+]2([O-])Oc3ccc(-c4c(OC(C)=O)c(OC(C)=O)c(-c5ccc(OC(C)=O)cc5)c(OC(C)=O)c4OC(C)=O)cc3O[C@]2([C@@H](C)CC)C(=O)N1OC(C)=O | 22.4 | > 50 | 24.1 | 41.6 | > 50 | > 50 | > 50 | 22.5 | > 50 | > 50 | – | – | – | – | – | – | – | – | – | –
OCC(O)C(O)C(O)C(O)/C=N/Nc1nc(O)c(/C=C2\C=Nc3ccccc32)[nH]1 (stereo not given) | > 100 | > 100 | 97.7 | > 100 | > 100 | > 100 | > 100 | > 100 | > 100 | > 100 | – | – | – | – | – | – | – | – | – | –
COc1cc(C=O)cc(C=Nc2ccc(S(N)(=O)=O)cc2)c1O | 33.3 | 74.6 | 20.8 | > 100 | 14.6 | 49.3 | 49 | 23 | 35.5 | > 100 | – | – | – | – | – | – | – | – | – | –
CN(C)CCNc1nc2c(no[n+]2[O-])c2ccccc12 | > 100 | > 100 | 40.4 | 33.5 | 30.3 | 60.6 | 35.2 | 28.4 | > 100 | 83.8 | – | – | – | – | – | – | – | – | – | –
COc1ccc2[nH]c(O)c(/C=c3/cc4c(c(-c5ccc(F)cc5)n3)=Nc3ccccc3-4)c2c1 | 32.9 | 4.01 | 30.7 | 6.34 | 3.85 | 36.8 | 6.34 | 15.8 | 18.8 | 3.26 | 3.73 | 1.82 | 12.6 | 2.31 | 1.98 | 18.2 | 2.05 | 3.47 | 4.19 | 1.68
CC(=O)N(CN1C(=O)CCC1C(=O)O)c1ccccc1Cl (stereo not given) | > 100 | > 100 | > 100 | > 100 | > 100 | > 100 | > 100 | > 100 | > 100 | > 100 | – | – | – | – | – | – | – | – | – | –
O=P1(c2ccccc2)C2=CCC=CC2C(c2ccccc2)N1Cc1ccccc1 (stereo not given) | 30.5 | 28.1 | 29.9 | 32.3 | 32.3 | 27 | 29.8 | 29.8 | 31.5 | 30.7 | – | – | – | – | – | – | – | – | – | –
COP(C)(=O)C(Cc1c[nH]c2ccccc12)NC(=O)OCc1ccccc1 (stereo not given) | > 100 | > 100 | > 100 | > 100 | > 100 | > 100 | > 100 | > 100 | > 100 | > 100 | – | – | – | – | – | – | – | – | – | –
CC1(C)CC2C(C1=O)C1(C)CCCC2(C)C1=O (stereo not given) | > 100 | > 100 | > 100 | > 100 | > 100 | > 100 | > 100 | > 100 | > 100 | > 100 | – | – | – | – | – | – | – | – | – | –
C=CC(Br)(CBr)CCC(Br)C(C)C (stereo not given) | 4 | 18.4 | 12.8 | 28.5 | 15.3 | 16.3 | 33.5 | 17.7 | 27.2 | 12.6 | – | – | – | – | – | – | – | – | – | –
COc1cc2c(c(OC)c1OC)-c1ccc(SC)cc1C(=O)CC2 | > 47.7 | > 32.1 | > 100 | > 100 | > 100 | > 100 | > 100 | > 100 | > 100 | > 100 | – | – | – | – | – | – | – | – | – | –
COc1ccc(C[C@@H]2OC3(C=CC(=O)C=C3)O[C@H]2Cc2ccc(OC)cc2)cc1 | 0.653 | 25.1 | 3.41 | 11.2 | 2.53 | 1.38 | 3.5 | 2.94 | 3.16 | 2.75 | – | – | – | – | – | – | – | – | – | –
CC1(C)C2CCC(N)(C2)C1O (stereo not given) | > 100 | > 100 | > 100 | > 100 | > 100 | > 100 | > 100 | > 100 | > 100 | > 100 | – | – | – | – | – | – | – | – | – | –
COC(=O)[C@H](CCSC)NC(=O)c1ccc(CNC(=O)/C(C)=C/c2ccccc2)cc1 | > 100 | > 100 | 66.3 | > 100 | 83.7 | > 100 | > 100 | > 100 | > 100 | > 100 | – | – | – | – | – | – | – | – | – | –
CC1CN=C(c2ccc(COc3ccc(C4=NCC(C)N4)cc3)cc2)N1 (stereo not given) | > 100 | > 100 | 58.4 | > 100 | > 100 | > 100 | > 100 | > 100 | > 100 | > 100 | – | – | – | – | – | – | – | – | – | –
Cc1ccc2c(=O)c(-c3n[nH]c(=S)s3)c[nH]c2n1 | > 100 | > 100 | > 100 | > 100 | > 100 | > 100 | > 100 | > 100 | > 100 | > 100 | – | – | – | – | – | – | – | – | – | –
O=[N+]([O-])c1ccc2ncccc2c1CCc1c([N+](=O)[O-])ccc2ncccc12 | > 100 | > 100 | > 100 | > 100 | > 100 | > 100 | > 100 | > 100 | > 100 | > 100 | – | – | – | – | – | – | – | – | – | –
CN1B(c2ccccc2)N(C)C(=O)N(C)C1=O | > 100 | > 100 | > 100 | > 100 | > 100 | > 100 | > 100 | > 100 | > 100 | > 100 | – | – | – | – | – | – | – | – | – | –
CCCCCCCCCCCCCCCCP(=O)([O-])OCC[N+](C)(C)C | 34.2 | 18.8 | 31.5 | 32.9 | 28.9 | 25.4 | 34.2 | 30 | 26.2 | 31.2 | – | – | – | – | – | – | – | – | – | –
CCCC1(N)CC(OC)OC(C)C1O (stereo not given) | > 100 | > 100 | > 100 | > 100 | > 100 | > 100 | > 100 | > 100 | > 100 | > 100 | – | – | – | – | – | – | – | – | – | –
CCOC(=O)CC[C@H](N)C(=O)N[C@H](Cc1ccc(N(CCCl)CCCl)cc1)C(=O)OCC | > 73.9 | 16.2 | > 28.4 | > 100 | 12.9 | 4.03 | > 47.7 | > 100 | 16.7 | > 33.7 | – | – | – | – | – | – | – | – | – | –
Nc1ccc(-c2nc3ccccc3s2)cc1Br | > 100 | > 100 | > 100 | > 100 | > 100 | > 100 | > 100 | > 100 | > 100 | > 100 | – | – | – | – | – | – | – | – | – | –
CC(C)c1cccc(C(C)C)c1OS(=O)(=O)NC(=O)OC(C(F)(F)F)C(F)(F)F | 44.8 | > 100 | > 100 | > 100 | 64 | > 100 | > 100 | > 100 | > 100 | > 100 | – | – | – | – | – | – | – | – | – | –
C=CCN1CCC2(CC1)NC(=O)c1ccccc1O2 | > 100 | > 100 | > 100 | > 100 | > 100 | > 100 | > 100 | > 100 | > 100 | > 100 | – | – | – | – | – | – | – | – | – | –
C=CCC(CNC(=O)OCc1ccccc1)OC(=O)OCc1ccccc1 (stereo not given) | 68.1 | > 100 | > 100 | > 100 | > 100 | > 100 | > 100 | 56 | > 100 | > 100 | – | – | – | – | – | – | – | – | – | –
